A short description of series [1]: Cytotoxicity against rat FRTL5 cells assessed as effect on cell growth at 1 uM measured at 24 hrs by MTT assay. The series is classed as cell-based. The note with it: frtl-5, 24 h. In general terms: Tetrazolium dyes change colour on reduction, which living cells bring about.
Series [2] concerns the target T1, Sodium/iodide cotransporter (Rattus norvegicus, UniProt Q63008).
T1 sequence (Q63008 whole entry): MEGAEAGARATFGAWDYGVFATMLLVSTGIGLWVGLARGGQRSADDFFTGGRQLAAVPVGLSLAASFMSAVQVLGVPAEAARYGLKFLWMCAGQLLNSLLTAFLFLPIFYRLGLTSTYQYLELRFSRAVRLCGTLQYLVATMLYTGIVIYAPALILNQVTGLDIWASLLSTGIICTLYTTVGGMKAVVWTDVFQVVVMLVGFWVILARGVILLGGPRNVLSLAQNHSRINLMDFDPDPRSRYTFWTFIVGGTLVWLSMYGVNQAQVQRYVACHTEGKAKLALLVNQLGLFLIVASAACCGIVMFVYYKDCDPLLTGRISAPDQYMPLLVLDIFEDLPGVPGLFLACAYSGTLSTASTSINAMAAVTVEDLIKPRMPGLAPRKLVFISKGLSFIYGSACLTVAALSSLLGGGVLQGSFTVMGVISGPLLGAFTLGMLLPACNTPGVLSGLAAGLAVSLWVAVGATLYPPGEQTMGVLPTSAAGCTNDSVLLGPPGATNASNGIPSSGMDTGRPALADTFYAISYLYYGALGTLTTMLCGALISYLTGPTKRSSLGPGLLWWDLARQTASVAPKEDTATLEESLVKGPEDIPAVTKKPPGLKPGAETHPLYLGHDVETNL
The experiment in a line: Inhibition of sodium iodide symporter in rat FRTL5 cells assessed as inhibition of iodide uptake using Na125I after 60 mins by scintillation counting method. The class given is cell-based, FRTL-5.

In series [3] the target is T1, Sodium/iodide cotransporter. Description: Inhibition of sodium iodide symporter in rat FRTL5 cells assessed as inhibition of iodide uptake using NaI/Na125I after 45 mins by scintillation counting method. The class given is cell-based, FRTL-5.

Structures are written as SMILES.

One may read the IC50 as the concentration needed to halve the response being measured.

As to `CC1=C(C(=O)OCc2ccc3c(c2)OCO3)C(c2ccccc2)NC(=O)N1` (centres undefined), the Activity result in series [1] is “Non-Toxic”. Take `COc1ccc(COC(=O)C2=C(C)NC(=O)NC2c2ccccc2)cc1` (centres undefined): in series [2], the IC50 stood at 0.4 µM. In the case of `COc1ccc(COC(=O)C2=C(C)NC(=O)NC2c2ccc(F)cc2)cc1` (centres undefined), in series [1], the Activity result is on record as “Non-Toxic”. As to `COc1ccc(COC(=O)C2=C(C)NC(=O)NC2c2cccc(Br)c2)cc1` (centres undefined), in series [1], the Activity result is “Non-Toxic”. Still for that read-out and setting: to `COc1ccc(COC(=O)C2=C(C)NC(=O)NC2c2ccccc2F)cc1` (centres undefined) belongs “Non-Toxic”; to `COc1ccc(COC(=O)C2=C(C)N(C)C(=O)N(C)C2c2ccco2)cc1OC` (centres undefined), “Non-Toxic”.

On to `CC1=C(C(=O)OCc2ccc3c(c2)OCO3)C(c2ccco2)NC(=O)N1` (centres undefined), for which the Activity entry in series [1] is given as “Non-Toxic”. Consider `CC1=C(C(=O)OCc2ccc3c(c2)OCO3)C(c2ccco2)NC(=O)N1C` (centres undefined), for which the Activity entry in series [1] is given as “Non-Toxic”. Turning to `CC1=C(C(=O)OCc2ccc3c(c2)OCO3)C(c2ccco2)N(C)C(=O)N1C` (centres undefined), the Activity result in series [1] is on record as “Non-Toxic”. Turning to `COc1ccc(COC(=O)C2=C(C)NC(=O)NC2c2ccco2)cc1` (centres undefined), the Activity entry in series [1] is recorded as “Non-Toxic”. For the compound `COc1ccc(COC(=O)C2=C(C)N(C)C(=O)NC2c2ccco2)cc1` (centres undefined), the Activity result in series [1] is listed as “Non-Toxic”. With `COc1ccc(COC(=O)C2=C(C)N(C)C(=O)N(C)C2c2ccco2)cc1` (centres undefined), the Activity result in series [1] is listed as “Non-Toxic”. Consider `COc1cccc(COC(=O)C2=C(C)NC(=O)NC2c2ccco2)c1` (centres undefined), for which the Activity entry in series [1] is on record as “Non-Toxic”. Take `COc1cccc(COC(=O)C2=C(C)N(C)C(=O)NC2c2ccco2)c1` (centres undefined): the Activity result in series [1] is listed as “Non-Toxic”.

For `COc1cccc(COC(=O)C2=C(C)N(C)C(=O)N(C)C2c2ccco2)c1` (centres undefined), the Activity result in series [1] is reported as “Non-Toxic”. Still for that read-out and setting: to `CC1=C(C(=O)OCc2ccccc2)C(c2ccccc2)NC(=O)N1` (centres undefined) belongs “Non-Toxic”; to `COc1ccc(COC(=O)C2=C(CC(C)C)NC(=O)NC2c2ccccc2)cc1` (centres undefined), “Non-Toxic”. With `COc1ccc(COC(=O)C2=C(Cc3cccs3)NC(=O)NC2c2ccccc2)cc1` (centres undefined), the Activity result in series [1] is given as “Non-Toxic”. On to `CCCCCC1=C(C(=O)OCc2ccc(OC)cc2)C(c2ccccc2)NC(=O)N1` (centres undefined), for which, in series [1], the Activity entry is “Non-Toxic”. `COc1ccc(COC(=O)C2=C(C)N(C)C(=O)NC2c2ccccc2)cc1` (centres undefined): the Activity entry in series [1] is given as “Non-Toxic”. For `CC1=C(C(=O)OCc2ccc3c(c2)OCO3)C(c2ccoc2)NC(=O)N1` (centres undefined), the Activity entry in series [1] is on record as “Non-Toxic”. For the compound `COc1ccc(COC(=O)C2=C(Cc3ccccc3)NC(=O)NC2c2ccccc2)cc1` (centres undefined), the Activity result in series [1] was “Non-Toxic”. `COc1ccc(COC(=O)C2=C(C)NC(=O)NC2c2ccc(C)o2)cc1` (centres undefined): the Activity result in series [1] was “Non-Toxic”. As to `COc1ccc(COC(=O)C2=C(C)NC(=O)NC2c2ccoc2)cc1` (centres undefined), the Activity result in series [1] is “Non-Toxic”. Regarding `CC1=C(C(=O)OCc2ccccc2C)C(c2ccccc2)NC(=O)N1` (centres undefined), the Activity entry in series [1] is “Non-Toxic”. The same measure, in the same setting: to `COc1ccc(COC(=O)C2=C(COc3ccccc3)NC(=O)NC2c2ccccc2)cc1` (centres undefined) belongs “Non-Toxic”; to `COc1cccc(COC(=O)C2=C(C)NC(=O)NC2c2ccccc2)c1` (centres undefined), “Non-Toxic”. As for `COc1ccc(COC(=O)C2=C(C)NC(=O)NC2c2cccc(F)c2)cc1` (centres undefined), the Activity entry in series [1] is given as “Non-Toxic”.

For `CC1=C(C(=O)OCc2ccccc2Cl)C(c2ccccc2)NC(=O)N1` (centres undefined), the Activity entry in series [1] is recorded as “Non-Toxic”. Take `COc1ccc(COC(=O)C2=C(CNC(=O)c3ccccc3)NC(=O)NC2c2ccccc2)cc1` (centres undefined): the Activity entry in series [1] was “Non-Toxic”.

With `COc1ccc(COC(=O)C2=C(c3cccs3)NC(=O)NC2c2ccccc2)cc1` (centres undefined), the Activity entry in series [1] was “Non-Toxic”.

For `COc1ccc(COC(=O)C2=C(C)NC(=O)NC2c2ccsc2)cc1` (centres undefined), the Activity result in series [1] is “Non-Toxic”.

With `CCC1=C(C(=O)OCc2ccc(OC)cc2)C(c2ccccc2)NC(=O)N1` (centres undefined), the Activity entry in series [1] is “Non-Toxic”. On to `COc1ccc(COC(=O)C2=C(C)N(C)C(=O)N(C)C2c2ccccc2)cc1` (centres undefined), for which, in series [1], the Activity entry is “Non-Toxic”. In the case of `COc1ccc(COC(=O)C2=C(C)NC(=S)NC2c2ccccc2)cc1` (centres undefined), the Activity entry in series [1] was “Non-Toxic”. The same measure, in the same setting: the entry for `COc1ccc(COC(=O)C2=C(C)NC(=O)NC2c2cccs2)cc1` (centres undefined) is “Non-Toxic”. Turning to `F[B-](F)(F)c1ccc(OCc2ccccc2)cc1`, the IC50 in series [3] was determined as 0.4 µM. `CC1=C(C(=O)OCc2ccc(Cl)cc2)C(c2ccccc2)NC(=O)N1` (centres undefined): the Activity result in series [1] was “Non-Toxic”. Turning to `CC1=C(C(=O)OCc2ccc(F)cc2)C(c2ccccc2)NC(=O)N1` (centres undefined), the Activity result in series [1] is “Non-Toxic”. For the compound `COc1ccc(COC(=O)C2=C(C3CCCCC3)NC(=O)NC2c2ccccc2)cc1` (centres undefined), in series [1], the Activity entry is recorded as “Non-Toxic”.

`COc1ccc(COC(=O)C2=C(C)NC(=O)NC2C2CC2)cc1` (centres undefined): in series [1], the Activity entry is recorded as “Non-Toxic”.

For the compound `COc1ccc(COC(=O)C2=C(C)NC(=O)NC2c2cccc(Cl)c2)cc1` (centres undefined), in series [1], the Activity result is reported as “Non-Toxic”.

For the compound `COc1ccc(COC(=O)C2=C(c3ccccc3)NC(=O)NC2c2ccccc2)cc1` (centres undefined), in series [1], the Activity result is listed as “Non-Toxic”. As for `CC1=C(C(=O)NCc2ccc3c(c2)OCO3)C(c2ccccc2)NC(=O)N1` (centres undefined), the Activity result in series [1] is “Non-Toxic”.

The values are drawn from ChEMBL document CHEMBL3880388, “Dihydropyrimidin-2(1H)-ones and dihydropyrimidin-2(1H)-thiones as inhibitors of sodium iodide symporter” (2014).
